Assay results from article PMC6027421 (Pharmaceuticals, 2018).
Like-named read-outs stand apart in the source and are kept apart here.

Experiments:
[1] = target: T1, CYP17A1_WT (Homo sapiens, UniProt P05093); test: Spectral substrate/inhibitor-binding assay, WT CYP17A1; settings: 50 nM protein, 22 °C
T1 sequence (P05093 1-508): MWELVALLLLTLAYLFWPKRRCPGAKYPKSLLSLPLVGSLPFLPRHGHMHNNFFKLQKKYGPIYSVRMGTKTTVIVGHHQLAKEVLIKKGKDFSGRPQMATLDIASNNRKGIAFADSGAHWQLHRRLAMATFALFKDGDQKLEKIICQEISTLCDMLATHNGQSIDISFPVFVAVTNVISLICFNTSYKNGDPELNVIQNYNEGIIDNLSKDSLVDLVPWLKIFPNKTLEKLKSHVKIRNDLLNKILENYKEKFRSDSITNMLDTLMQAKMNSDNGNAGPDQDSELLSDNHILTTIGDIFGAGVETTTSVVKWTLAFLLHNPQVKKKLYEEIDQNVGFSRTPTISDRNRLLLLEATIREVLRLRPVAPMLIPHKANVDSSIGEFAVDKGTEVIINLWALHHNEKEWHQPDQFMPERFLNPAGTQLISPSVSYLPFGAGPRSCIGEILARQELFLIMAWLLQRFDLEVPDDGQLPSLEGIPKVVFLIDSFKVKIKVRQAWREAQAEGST
Method: Binding of steroid substrates to CYP17A1 was measured by recording the substrate-binding spectra in the range of 340–500 nm on a Perkin Elmer Lambda 25 spectrophotometer. A change in heme absorbance is observed when water molecules at the active site are replaced by steroid substrates. […] To accurately measure the tight binding substrates and inhibitors, a cuvette with 100 mm path length was employed and protein concentration was kept at 50 nM. […] All substrates and abiraterone were dissolved in ethanol and an equal amount of ethanol was added to the reference cuvette and the final concentration of ethanol added to the cuvettes was kept below 2%. After each addition of the compounds, cuvettes were incubated for 5 min at 22 °C before recording the spectra. […] Data were fitted with GraphPad Prism based on the tight binding pattern of substrates to a single binding site.

[2] = test system: T2, CYP17A1 WT; test: 17α-hydroxylase enzyme kinetics (PROG to 17OH-PROG), WT CYP17A1; type: biochemical, human
T2 construct: (His)4; made in house; host or cells: E. coli JM109
Method: (§1) To assess 17α-hydroxylase activity, 10 pmol of CYP17A1 along with 20 pmol purified human POR [17, 31, 32, 34, 62] […] Enzyme kinetic calculations were performed using non-linear regression curve fitting with Prism (GraphPad Software Inc., San Diego, CA, USA). Data represent the mean of three independent experiments.

[3] = target: T1, CYP17A1_WT; test: Inhibition of PROG 17α-hydroxylation, WT CYP17A1; type: biochemical
Method: as §1

[4] = test system: CYP17A1 WT; settings: 17OH-PREG as substrate, with cytochrome b5

Structure (SMILES)	Kd ([1]; read-out: Kd) [µM]	Vmax, 17α-Hydroxylase PROG to 17OH-PROG ([2]; PROG as substrate) [min⁻¹]	Km ([2]; read-out: Km, 17α-Hydroxylase PROG to 17OH-PROG, PROG as substrate, CYP17A1:POR 1:2, 37 °C) [µM]	Cat Eff, 17α-Hydroxylase PROG to 17OH-PROG ([2]; relative to WT) [%]	IC50 [3] [µM]	Vmax, 17,20 Lyase 17OH-PREG to DHEA [4] [min⁻¹]	Km ([4]; read-out: Km, 17,20 Lyase 17OH-PREG to DHEA) [µM]	Kd ([1]; Kd) [µM]
CC(=O)[C@H]1CC[C@H]2[C@@H]3CCC4=CC(=O)CC[C@]4(C)[C@H]3CC[C@]12C [PROG, Progesterone]	0.163 ± 0.029	0.71	6.1 ± 0.7	100				
C[C@]12CC[C@H](O)CC1=CC[C@@H]1[C@@H]2CC[C@]2(C)C(c3cccnc3)=CC[C@@H]12 [Abiraterone, abiraterone]	0.085 ± 0.023				0.04 ± 0.01			
CC(=O)[C@H]1CC[C@H]2[C@@H]3CC=C4C[C@@H](O)CC[C@]4(C)[C@H]3CC[C@]12C [PREG, pregnenolone]	0.062 ± 0.017				0.9 ± 0.15			
CC(=O)[C@@]1(O)CC[C@H]2[C@@H]3CC=C4C[C@@H](O)CC[C@]4(C)[C@H]3CC[C@@]21C [17OH-PREG, 17α-hydroxypregnenolone]					1.7 ± 0.2	0.025 ± 0.004	0.92 ± 0.07	0.142 ± 0.038
